{"source": "patent US6692753B2", "about": "“Potentiation of the immune response” (priority 1997, dated 2004)", "key": {"[1]": {"tested_on": "PBMC from HIV-infected individuals", "assay": "Proliferation of PBMC from HIV-infected individuals, 3H thymidine incorporation", "type": "cell-based, human", "conditions": "for stimulation of proliferation: higher doses (10^−4M), PBMC of HIV-infected patients; for stimulation of proliferation (incorporation of 3H thymidine, cpm): very low / low doses, PBMC from HIV-infected patients, in vitro", "source_text": "If desired, additional in vitro assays can be carried out using candidate compounds of the invention, prior to their use in vivo. One such assay employs the candidate compound at a very low concentration, in a test designed to determine whether at low concentrations the compound can stimulate the proliferation of PBMC from HIV infected patients in vitro. As is shown in the data of FIG. 4, stimulation can be measured by, e.g., incorporation of a labelled nucleotide. Peripheral blood mononuclear cells (PBMC) were obtained by standard methods from HIV-infected individuals, and from uninfected individuals. Varying dosages of KBP or VBP were contacted with the PBMC in vitro, and stimulation of proliferation was measured by incorporation of ^3H thymidine (cpm)."}, "CD4/CD8+ T cells": {"tested_on": "CD4/CD8+ T cells", "assay": "Cell death of purified resting T-cells, 7AAD flow cytometry", "type": "cell-based, human", "conditions": "overnight incubation, 10^−4M or 10^−6M", "description": "CD19+B cells and CD4/CD8+ T cells were isolated (>90% and >97% purity, respectively). The cells were then incubated overnight in the presence or absence of VBP (10^−4M or 10^−6M). The amount of death induced by VBP treatment was determined by 7AAD flow cytometry analysis. The data represents the mean percent of death from duplicate samples.\nThe amount of cell death was determined by 7AAD flow cytometry analysis. Data represent % of cell death from duplicate samples."}, "[2]": {"tested_on": "CD26+ and CD26− PBMC populations", "assay": "Cell death of sorted CD26+ and CD26− PBMC populations, 7AAD flow cytometry", "type": "cell-based, human", "conditions": "overnight, various (moderate) concentrations", "description": "PBMC were stained with the anti-CD26 monoclonal antibody, 4 EL, and then sorted into CD26^+ and CD26^− populations using a facstar plus dual lasar flow cytometry. The cells expressing the highest level )top 5%) of CD26 and the cells expressing the lowest level (bottom 10%) of CD26 were isolated as the CD26^+ and CD26^− populations respectively. […] The CD26^+ and CD26^− populations were cultured overnight in the presence or absence of various concentrations of VBP. The amount of death induced by VBP treatment was determined by 7AAD flow cytometry analysis. Data represent mean percent of death from duplicate samples +/−SD.\nThe amount of cell death was determined by 7AAD flow cytometry analysis. Data represent mean % of death from duplicate samples."}, "[3]": {"tested_on": "cytoplasmic T-cell enzyme (post-prolyl dipeptidase) in Jurkat T-cell cytoplasmic extract", "assay": "Enzymatic activity of Jurkat T-cell cytoplasmic extract, fluorescent cleavage of Ala-ProAFC", "type": "biochemical, human", "conditions": "varying concentrations", "procedure": "A suitable enzyme-containing cell extract can be prepared as follows. First, Jurkat cells (10^6-10^11 cells) are grown and a cell pellet is obtained by centrifugation. The cell pellet is stored in frozen condition.\nFor use in the assay, the frozen pellet is thawed by the addition of ice cold lysis buffer, in the amount of approximately 1 ml per 10^8 cells. The liquified material is homogenized with ten strokes of a Dounce homogenizer, and then clarified by centrifugation at 1500 g. The supernatant is removed (and saved), and the 1500 g. pellet is resuspended in lysis buffer and homogenized with ten strokes of a Dounce homogenizer. Clarification is again carried out by centrifugation at 1500 g, 4° C.\nThe 1500 g supernatants are then combined, and EDTA is added to 5mM. The resultant liquid is centrifuged at 75,000 g at 4° C. for twenty minutes, and the supernatant is then removed and centrifuged at 175,000 g. at 4° C., for 60 minutes. […]\nIn the assay we carried out, we employed a fluorescence spectrometer for excitation at 400 nm and emission at 505 nm. […]\nIn the test samples, multiple samples are run containing varying concentrations, down to 10^−8 M, of the test compound. […] Enzymatic activity is measured as the accumulation of fluoresence intensity (i.e., substrate cleavage product) over time (1 min.)."}}, "note": "Entries after “also recorded” stand apart in the source; their conditions may differ.", "data": [{"smiles": "CC(C)[C@H](N)C(=O)N1CCC[C@H]1B(O)O", "note": "[Val-boroPro]", "values": [{"measurement": "stimulation of proliferation", "setting": "[1]", "value": "do not have this effect"}, {"measurement": "stimulation of proliferation (incorporation of 3H thymidine, cpm)", "setting": "[1]", "value": "stimulated proliferation; also recorded: cause proliferation"}, {"measurement": "cell death / apoptosis (7AAD)", "setting": "CD4/CD8+ T cells", "value": "highly sensitive"}, {"measurement": "cell death / apoptosis (7AAD)", "setting": "CD4/CD8+ T cells; listed as VBP", "value": "dose-dependent apoptosis"}, {"measurement": "cell death / apoptosis (7AAD)", "setting": "[2]", "value": "equally susceptible"}, {"measurement": "cell death / apoptosis (7AAD)", "setting": "[2]; listed as VBP", "value": "dose-dependent apoptosis in both CD26^+ and CD26^− populations; also recorded: equally susceptible"}, {"measurement": "inhibition of enzymatic activity (AFC release from Ala-ProAFC)", "setting": "[3]", "value": "inhibited"}, {"measurement": "inhibition of enzymatic activity (AFC release from Ala-ProAFC)", "setting": "[3]; listed as val-boroPro", "value": "inhibited the cytoplasmic enzyme"}]}, {"smiles": "NCCCC[C@H](N)C(=O)N1CCC[C@H]1B(O)O", "note": "[Lys-boroPro]", "values": [{"measurement": "stimulation of proliferation", "setting": "[1]", "value": "do not have this effect"}, {"measurement": "stimulation of proliferation (incorporation of 3H thymidine, cpm)", "setting": "[1]", "value": "stimulated proliferation; also recorded: cause proliferation"}]}]}
